This is an account of results in paper PMC10449632, “Structural basis for translation inhibition by the glycosylated drosocin peptide” (Nature Chemical Biology, 2023).

No end group written: not given here. *: point of attachment. αGalNAc = CC(=O)N[C@@H]1[C@@H](O)[C@@H](O)[C@@H](CO)O[C@@H]1*

Test [1] has as its system in vitro translation, E. coli PURExpress system, firefly luciferase (Fluc) mRNA. The test is described as follows: In vitro translation assay with Fluc reporter. The test is classed as biochemical, Escherichia coli. Particulars: Fluc mRNA, luminescence; for maximum inhibition of in vitro translation: at the highest concentration tested of 150 μM. As to the method:
To investigate this, we compared the effect of increasing concentrations (0–150 μM) of modified Dro1 and Dro2 with unmodified Dro, Dro-3P and Api137 using a cell-free in vitro translation system and firefly luciferase (Fluc) mRNA as a template (Fig. 1e), as we have used previously for assessing the activity of other PrAMPs[4],[6],[8],[9],[32],[33].
The in vitro translation assay was carried out as described previously[4],[8] using the E. coli PURExpress system (New England Biolabs (NEB), E6800S). Then, 1 µl of antibiotic solution was added to 5 µl of PURExpress reaction mix. Each reaction contained 10 ng μl^−1 of mRNA encoding the Fluc, which was in vitro transcribed from a pIVEX-2.3MCS vector containing the Fluc gene using T7 polymerase (Thermo Fisher Scientific). The reaction mix was incubated for 30 minutes at 32 °C while shaking (600 r.p.m.). Reactions were stopped with 5 µl of kanamycin (50 mg ml^−1) and transferred into a 96-well microplate (Greiner Lumitrac, non-binding, white, chimney). Next, 40 µl of luciferase assay substrate solution (Promega, E1501) was added, and luminescence was measured using a plate reader (Tecan Infinite 200 PRO). Nuclease-free water was added instead of antibiotic as control. Absolute luminescence values were normalized using reactions without antibiotic. All assays were done as triplicates with individually prepared reaction mix.

Test [2] deals with E. coli SQ110 A2059G. The test is described as follows: Antibiotic susceptibility (growth) assay, E. coli SQ110 A2059G. Type of test: cell-based, Escherichia coli. The settings on record: A2059G mutation; LB medium; 5, 10, 30 μM. The source says:
(§1) Strains E. coli Keio wild-type and E. coli Keio ΔsbmA used from the Keio knockout collection (Horizon, https://horizondiscovery.com). Wild-type E. coli SQ110 (ΔrrnGADBHC(ptRNA67))[47] and SQ171 (ΔrrnGADEHBC(pKK3535, ptRNA67))[47] strains and related mutants E. coli SQ110 A2059G and E. coli SQ171 A2503G were obtained from the previous Api137 study. E. coli strains SQ171 bearing A752G, U2609C and A752G:U2609C mutations[43] and E. coli SQ171 U2609G[48] were generated previously.
(§2) The susceptibility of E. coli strains to compounds was evaluated by monitoring the bacterial growth in presence of increasing concentrations of the compound of interest. […] Values measured from wells containing just the medium were used as a blank. The growth in each well was monitored by measuring the OD600 every 10 minutes for a total of 20 hours at 37 °C with shaking using a plate reader (Tecan Infinite 200 PRO). The inhibition resulting from a compound’s concentration was evaluated by normalizing the OD600 at t = 12 hours (corresponding to the end of the log phase) from the treated culture to the untreated one. […] For each concentration, the standard deviation was calculated, taking into account each single replica and its specific technical error from the plate reader.

Test [3] deals with E. coli SQ171 A2503G. Description: Antibiotic susceptibility (growth) assay, E. coli SQ171 A2503G. The test is classed as cell-based, Escherichia coli. Particulars: A2503G mutation; LB medium; 5, 10, 30 μM.
Description: as §1, §2

Take “Dro1: naturally occurring drosocin carrying monosaccharide α-D-GalNAc attached to Thr11 (GKPRPYSPRPT(αGalNAc)SHPRPIRV; UniProt P36193 22-40, looked up)”: the IC50 in test [1] (0–150 μM peptide, 30 minutes at 32 °C, triplicate, read-out: half maximal inhibitory concentration (IC50), in vitro translation) amounted to 78 ± 13 µM. Besides, the “maximum inhibition of in vitro translation” value in test [1] is listed as 60%. For the same substance, the “resistance of mutant compared to the wild-type strain” value in test [2] and in test [3] was “more resistant” in each case.
As for “Dro: unmodified drosocin, 19 amino acid proline-rich antimicrobial peptide lacking O-glycosylation (GKPRPYSPRPTSHPRPIRV; Drosocin; UniProt P36193 22-40, looked up)”, in test [1], the “maximum inhibition of in vitro translation” value amounted to 20%.
